Entries after “also recorded” stand apart in the source; their conditions may differ.

In one data set the test system is p-EPOR. The data set can be described thus: Western blot of p-EPOR in hRMVECs. Format: cell-based, human. The settings on record: 30 minutes of EPO treatment. The source says:
(§1) hRMVECs (Cell Systems, Kirkland, Wash.) were maintained in EGM-2 endothelial growth medium (Lonza, Walkers-ville, MD) supplemented with 5% fetal bovine serum. Cells of passage 3 to 5 were used for experiments. […]
(§2) For siRNA transfection, hRMVECs at 70% confluency were transfected in six-well plates with siRNAs targeting human EPOR, VEGFR2, or STAT3 (Life Technologies, Carlsbad, Calif.) using Lipofectamine 2000 reagent (Invitrogen by Life Technologies, Carlsbad, Calif.). A silencer selective negative control siRNA was used as control.
(§3) For cell proliferation assays, hRMVECs were plated into 96-well plates at a density of 5000 cells per well. […] Cell number was measured with a Vybrant MTT cell proliferation assay kit (Life Technologies, Carlsbad, Calif.).
Dissected retinas and hRMVECs were lysed in radioimmunoprecipitation assay buffer with 1:100 protease inhibitors (Roche Diagnostics, Indianapolis, Ind.) and 2 mmol/L sodium orthovanadate and were homogenized and centrifuged at 13,000 rpm (15,700 g) for 10 minutes at 4° C. Total protein in the supernatant fluid was quantified by a bicinchoninic acid assay (Pierce BCA; Thermo Fisher Scientific, Waltham, Mass.). […] Blots were visualized, and the relative densities of bands were calculated as described herein, using gel analysis software (UN-SCAN-IT gel, version 6.1; Silk Scientific, Orem, Utah). […]

For the next data set, the system named is rat ROP model. The data set can be described thus: Lectin-stained retinal flat mounts, IVNV and AVA, rat ROP model (rat 50/10 OIR model). Type of data set: in vivo.
Another data set has as its system EPOR. The data set can be described thus: EPOR expression in hRMVECs (qPCR, Western blot). Format: cell-based, human. The settings on record: overnight treatment; 20 ng/mL VEGFA or 10 IU/mL EPO; vs PBS.
Description: as §1, §2
Total RNA of cells was extracted by TRI Reagent (Sigma-Aldrich, St. Louis, Mo.). For dissected retinas, total RNA was extracted using an RNeasy mini kit (Qiagen, Valencia, Calif.). RNA was quantified using a NanoDrop spectrophotometer (Thermo Fisher Scientific, Waltham, Mass.). cDNA was generated with the use of a high-capacity cDNA archive kit (Life Technologies, Carlsbad, Calif.). qPCR was performed on a Mastercycler ep realplex system (Eppendorf, Hauppauge, N.Y.) with the use of SYBR Green master mix (Roche Diagnostics, Indianapolis, Ind.) and primers synthesized by the core research facility of the University of Utah. Expression levels for VEGFA were normalized to the mean value of internal control β-actin. […]
Dissected retinas and hRMVECs were lysed in radioimmunoprecipitation assay buffer with 1:100 protease inhibitors (Roche Diagnostics, Indianapolis, Ind.) and 2 mmol/L sodium orthovanadate and were homogenized and centrifuged at 13,000 rpm (15,700 g) for 10 minutes at 4° C. Total protein in the supernatant fluid was quantified by a bicinchoninic acid assay (Pierce BCA; Thermo Fisher Scientific, Waltham, Mass.). […] Blots were visualized, and the relative densities of bands were calculated as described herein, using gel analysis software (UN-SCAN-IT gel, version 6.1; Silk Scientific, Orem, Utah). Relative activities were calculated as the ratio of phosphorylated to total protein or to β-actin and are expressed as fold difference compared with control. At least six samples from each group were measured and analyzed.
(In general: In qPCR the cycle at which signal appears reflects the starting amount.)

In another data set the target is T1, p-VEGFR2 (Homo sapiens, UniProt P35968).
T1 construct: Dissected retinas and hRMVECs were lysed in radioimmunoprecipitation assay buffer; host or cells: hRMVECs
The data set can be described thus: Western blot of p-VEGFR2 in hRMVECs. Format: cell-based. The settings on record: 30 minutes of EPO treatment. In general terms: A western blot detects proteins with antibodies after separation by electrophoresis.

Data set [1] deals with hRMVECs. The data set can be described thus: TUNEL+ cells in hRMVECs. Type of data set: cell-based, human. Particulars: vs. DMSO.
A further data set deals with ROP+SO model. In words: IVNV in rat ROP model rescued in 28% oxygen (ROP+SO model). Type of data set: in vivo. Particulars: intraperitoneal, p18, vs. PBS. From the text: Activation of NADPH oxidase generally requires aggregation of a NOX isoform (NOX1-5, Duox1 or 2) with membrane bound p22phox; for NOX1-3 activation, aggregation with Rac1 and cytoplasmic subunits p47phox, p67phox or homologs is also required. Few studies address oxygen effects on NADPH oxidase regulated signaling in ROP or development. Studying NADPH oxidase in vivo is also complicated, because 1) of compensation from NOX isoforms or homologs, which differ in different tissues, and 2) most inhibitors are not specific. In this example, oxygen stresses were varied by using 3 different OIR models: ROP and ROP+SO models in rat and OIR model in mouse. NADPH oxidase-induced signaling in ECs was targeted by reducing leukocyte/macrophages, which generate ROS through NADPH oxidase, or with a transgenic mouse. In rat ROP and ROP+SO models, macrophages ˜75% (FIG. 7A) were reduced with 1 uL intravitreal clodronate). […] Macrophages have multiple effects on angiogenesis including through non-NADPH oxidase mechanisms, so a more specific method was used to study NADPH oxidase-related signaling. NOX 1, 2, 4 are known to be involved in pathologic retinal angiogenesis; NOX2 is in macrophages and ECs. Therefore p47phox−/− mice were used to reduce NADPH oxidase activation from NOX 1-3. […]
7 experiments were conducted to accomplish three specific objectives. […] Pup weights were monitored. […]

Data set [2] concerns hRMVECs. The data set can be described thus: VEGFA-induced hRMVEC proliferation assay (MTT). Format: cell-based, human. Particulars: 20 ng/mL VEGFA 24 hours; SU5416 5 μmol/L, AG490 10 μmol/L, siRNA transfection. The procedure:
as §2
For cell proliferation assays, hRMVECs were plated into 96-well plates at a density of 5000 cells per well. At 24 hours after transfection with siRNA, cells were starved in serum-free medium for 24 hours and then were incubated with 20 ng/mL VEGFA or control PBS for another 24 hours. To inhibit VEGFR2 or STAT3 activation, cells were pretreated with 5 μmol/L of the VEGFR2 tryosine-kinase inhibitor semaxanib (SU5416), 10 μmol/L of the JAK2/STAT3 inhibitor AG490 (both from Sigma-Aldrich, St. Louis, Mo.), or dimethyl sulfoxide (DMSO) vehicle control for 1 hour before addition of VEGFA. Cell number was measured with a Vybrant MTT cell proliferation assay kit (Life Technologies, Carlsbad, Calif.).

Another data set concerns severe ROP. Particulars: weekly subcutaneous injections; preterm infants (n=102); cited from earlier work.
Another data set has as its system p-STAT3. In words: Western blot of p-STAT3 in hRMVECs. Format: cell-based, human. Particulars: VEGFA stimulation. The procedure:
hRMVECs (Cell Systems, Kirkland, Wash.) were maintained in EGM-2 endothelial growth medium (Lonza, Walkers-ville, MD) supplemented with 5% fetal bovine serum. Cells of passage 3 to 5 were used for experiments. Confluent cells in six-well plates were starved for 16 hours and then treated with 20 ng/mL VEGFA or PBS for 24 hours for qPCR or 30 minutes for p-VEGFR2, p-EPOR, and p-STAT3.
as §2, §3
Dissected retinas and hRMVECs were lysed in radioimmunoprecipitation assay buffer with 1:100 protease inhibitors (Roche Diagnostics, Indianapolis, Ind.) and 2 mmol/L sodium orthovanadate and were homogenized and centrifuged at 13,000 rpm (15,700 g) for 10 minutes at 4° C. Total protein in the supernatant fluid was quantified by a bicinchoninic acid assay (Pierce BCA; Thermo Fisher Scientific, Waltham, Mass.). […] At least six samples from each group were measured and analyzed.

Another data set concerns NOX4. The data set can be described thus: ROS generation mediated by NOX4 in hRMVECs. Type of data set: cell-based, human.

T1 sequence (P35968 20-1356): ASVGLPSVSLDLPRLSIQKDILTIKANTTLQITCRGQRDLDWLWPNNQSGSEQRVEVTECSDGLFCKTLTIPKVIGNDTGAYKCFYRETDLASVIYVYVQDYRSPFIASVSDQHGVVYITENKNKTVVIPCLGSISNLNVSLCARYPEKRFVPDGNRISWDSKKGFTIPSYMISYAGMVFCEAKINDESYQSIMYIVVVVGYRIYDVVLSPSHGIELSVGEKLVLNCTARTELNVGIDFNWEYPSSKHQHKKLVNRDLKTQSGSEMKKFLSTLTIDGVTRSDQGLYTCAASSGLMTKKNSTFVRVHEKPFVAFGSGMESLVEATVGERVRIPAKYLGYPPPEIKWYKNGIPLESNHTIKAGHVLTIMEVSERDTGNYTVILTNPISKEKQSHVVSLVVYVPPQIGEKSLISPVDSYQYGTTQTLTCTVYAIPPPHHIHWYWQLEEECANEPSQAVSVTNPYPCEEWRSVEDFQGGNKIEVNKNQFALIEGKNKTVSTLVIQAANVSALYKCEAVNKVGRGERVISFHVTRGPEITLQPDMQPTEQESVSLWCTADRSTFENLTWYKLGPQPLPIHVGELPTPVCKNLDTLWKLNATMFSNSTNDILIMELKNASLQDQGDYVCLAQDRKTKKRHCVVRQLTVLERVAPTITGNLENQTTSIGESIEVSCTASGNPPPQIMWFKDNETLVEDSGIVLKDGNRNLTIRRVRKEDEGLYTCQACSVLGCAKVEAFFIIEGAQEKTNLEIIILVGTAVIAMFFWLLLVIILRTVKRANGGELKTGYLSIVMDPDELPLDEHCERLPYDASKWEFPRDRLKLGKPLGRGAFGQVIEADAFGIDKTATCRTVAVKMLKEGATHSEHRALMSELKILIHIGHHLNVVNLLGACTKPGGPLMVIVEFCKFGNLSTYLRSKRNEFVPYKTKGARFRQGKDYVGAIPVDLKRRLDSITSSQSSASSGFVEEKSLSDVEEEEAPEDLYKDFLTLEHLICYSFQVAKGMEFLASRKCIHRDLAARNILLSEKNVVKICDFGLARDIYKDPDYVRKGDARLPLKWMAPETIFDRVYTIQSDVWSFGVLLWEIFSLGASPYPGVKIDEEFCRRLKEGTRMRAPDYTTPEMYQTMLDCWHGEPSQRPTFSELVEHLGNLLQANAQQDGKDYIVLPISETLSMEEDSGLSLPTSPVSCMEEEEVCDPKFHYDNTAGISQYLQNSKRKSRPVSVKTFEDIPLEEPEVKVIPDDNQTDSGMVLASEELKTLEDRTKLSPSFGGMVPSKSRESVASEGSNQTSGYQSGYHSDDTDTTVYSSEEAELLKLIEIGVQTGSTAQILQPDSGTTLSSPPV
Description for p-VEGFR2: For siRNA transfection, hRMVECs at 70% confluency were transfected in six-well plates with siRNAs targeting human EPOR, VEGFR2, or STAT3 (Life Technologies, Carlsbad, Calif.) using Lipofectamine 2000 reagent (Invitrogen by Life Technologies, Carlsbad, Calif.). […]
Dissected retinas and hRMVECs were lysed in radioimmunoprecipitation assay buffer with 1:100 protease inhibitors (Roche Diagnostics, Indianapolis, Ind.) and 2 mmol/L sodium orthovanadate and were homogenized and centrifuged at 13,000 rpm (15,700 g) for 10 minutes at 4° C. Total protein in the supernatant fluid was quantified by a bicinchoninic acid assay (Pierce BCA; Thermo Fisher Scientific, Waltham, Mass.). […] Blots were visualized, and the relative densities of bands were calculated as described herein, using gel analysis software (UN-SCAN-IT gel, version 6.1; Silk Scientific, Orem, Utah). Relative activities were calculated as the ratio of phosphorylated to total protein or to β-actin and are expressed as fold difference compared with control. […]

As to erythropoietin [EPO], the p-EPOR level result in the data set with p-EPOR was “did not increase p-EPOR and p-VEGFR2 levels”. In addition, in the data set with rat ROP model (ROP model), the “Phase II IVNV” value is “did not reduce Phase II IVNV”. For the same compound, in the data set with rat ROP model (delivered at early ages), the “PRVD in Phase I” value is listed as “restored PRVD in Phase I”. Also, the “restoration of developmental retinal vascularization” value in the data set with rat ROP model (exogenous) came to 40%. Also, the EPOR protein result with EPOR is recorded as “led to an increase in EPOR protein”. The p-VEGFR2 level entry in the data set with p-VEGFR2 is “did not increase p-EPOR and p-VEGFR2 levels”.

Take `N#C/C(=C/c1ccc(O)c(O)c1)C(=O)NCc1ccccc1` [AG490]: the “TUNEL+ cells” value in the data set with hRMVECs [1] is “increases TUNEL+ cells”. Besides, the IVNV entry in the data set with ROP+SO model is “inhibited Phase II IVNV in the ROP+SO; also recorded: reduced IVNV”. Besides, the “VEGFA-induced hRMVEC proliferation” value with hRMVECs [2] is recorded as “reduced VEGFA-induced hRMVEC proliferation to baseline”.

Regarding darbepoietin, the “occurrence of severe ROP” value in the data set on severe ROP is listed as “neither increased nor reduced the occurrence of severe ROP”.

With `CO[C@@H]1[C@@H]2OP(=O)(O)OC[C@H]2O[C@H]1n1c(Sc2ccc(Cl)cc2)nc2c(N)ncnc21` [8CPT, 8CPT 2′OMe-cAMP], the “VEGFA-induced p-STAT3” value in the data set on p-STAT3 was “inhibits VEGF (V)-induced STAT3 activation”. Besides, the “basal and VEGF-induced ROS generation” value in the data set on NOX4 was “inhibits VEGF (V)-induced STAT3 activation, B) basal and VEGF-induced ROS generation”.

Values taken from US10214741B2, “Methods and compositions for inhibiting retinopathy of prematurity” (University of Utah Research Foundation, priority 2014, dated 2019).
